# Data from article PMC8623168, “Evaluation of Amyloid Polypeptide Aggregation Inhibition and Disaggregation Activity of A-Type Procyanidins” (Pharmaceuticals, 2021).
# Target: T1, hIAPP (human islet amyloid polypeptide) (Homo sapiens, UniProt P10997)
# T1 construct: gene IAPP; mature peptide of 37 residues (34-70 of the precursor, recalled), bought from KareBay Biochem; aggregating peptide, monomer to fibril
# T1 sequence (P10997 34-70): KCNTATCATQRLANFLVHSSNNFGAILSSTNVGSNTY
# Experiment: thioflavin-T fluorescence, aggregation inhibition
# Assay type: biochemical
# Conditions: read-out: IC50 (Aβ/hIAPP, μM) ^a
# Text: thioflavin-T fluorescence, aggregation inhibition on hIAPP (human islet amyloid polypeptide)
row,SMILES,IC50 [µM]
1,"O=C(O[C@@H]1Cc2c(O)cc(O)cc2O[C@@H]1c1cc(O)c(O)c(O)c1)c1cc(O)c(O)c(O)c1 [EGCG, reference compound]",1.1
2,"Oc1cc(O)c2c(c1)O[C@@]1(c3ccc(O)c(O)c3)Oc3cc4c(c(O)c3[C@@H]2[C@H]1O)C[C@@H](O)[C@@H](c1ccc(O)c(O)c1)O4 [compound 3, proanthocyanidin A6]",16.4
3,"Oc1cc(O)c2c(c1)O[C@@]1(c3ccc(O)c(O)c3)Oc3c4c(cc(O)c3[C@@H]2[C@H]1O)O[C@H](c1ccc(O)c(O)c1)[C@@H](O)C4 [compound 6, 6]",11.6
4,"COc1cc(OC)c2c(c1)O[C@@]1(c3ccc(OC)c(OC)c3)Oc3cc(OC)c4c(c3[C@@H]2[C@H]1O)O[C@H](c1ccc(OC)c(OC)c1)[C@H](O)C4 [compound 7, 7]",> 100
5,"Oc1cc(O)c2c(c1)O[C@@]1(c3ccc(O)c(O)c3)Oc3c4c(cc(O)c3[C@@H]2[C@H]1O)O[C@H](c1ccc(O)c(O)c1)[C@H](O)C4 [compound 5, proanthocyanidin A7]",13.4
6,"Oc1cc(O)c2c(c1)O[C@@]1(c3ccc(O)c(O)c3)Oc3cc(O)c4c(c3[C@@H]2[C@H]1O)O[C@H](c1ccc(O)c(O)c1)[C@H](O)C4 [compound 1, procyanidin A2]",8.4
7,"Oc1cc(O)c2c(c1)O[C@H](c1ccc(O)c(O)c1)[C@H](O)C2 [compound 8, (−)-epicatechin]",38.9
8,"Oc1cc(O)c2c(c1)O[C@H](c1ccc(O)c(O)c1)[C@@H](O)C2 [compound 9, (+)-catechin]",40.9
9,"Oc1cc(O)c2c(c1)O[C@@]1(c3ccc(O)c(O)c3)Oc3cc4c(c(O)c3[C@@H]2[C@H]1O)C[C@H](O)[C@@H](c1ccc(O)c(O)c1)O4 [compound 4, 4]",16.8

# Target: T1, hIAPP (human islet amyloid polypeptide)
# Experiment: thioflavin-T fluorescence, disaggregation of preformed aggregates
# Assay type: biochemical
# Conditions: read-out: EC50 (Aβ/hIAPP, μM) ^a
# Text: thioflavin-T fluorescence, disaggregation of preformed aggregates on hIAPP (human islet amyloid polypeptide)
row,SMILES,EC50 [µM]
1,"O=C(O[C@@H]1Cc2c(O)cc(O)cc2O[C@@H]1c1cc(O)c(O)c(O)c1)c1cc(O)c(O)c(O)c1 [EGCG, reference compound]",3.7
2,"Oc1cc(O)c2c(c1)O[C@@]1(c3ccc(O)c(O)c3)Oc3cc4c(c(O)c3[C@@H]2[C@H]1O)C[C@@H](O)[C@@H](c1ccc(O)c(O)c1)O4 [compound 3, proanthocyanidin A6]",4.9
3,"COc1cc(OC)c2c(c1)O[C@@]1(c3ccc(OC)c(OC)c3)Oc3cc(OC)c4c(c3[C@@H]2[C@H]1O)O[C@H](c1ccc(OC)c(OC)c1)[C@H](O)C4 [compound 7, 7]",> 100
4,"Oc1cc(O)c2c(c1)O[C@@]1(c3ccc(O)c(O)c3)Oc3c4c(cc(O)c3[C@@H]2[C@H]1O)O[C@H](c1ccc(O)c(O)c1)[C@H](O)C4 [compound 5, proanthocyanidin A7]",15.8
5,"Oc1cc(O)c2c(c1)O[C@@]1(c3ccc(O)c(O)c3)Oc3cc(O)c4c(c3[C@@H]2[C@H]1O)O[C@H](c1ccc(O)c(O)c1)[C@H](O)C4 [compound 1, procyanidin A2]",5.4
6,"Oc1cc(O)c2c(c1)O[C@H](c1ccc(O)c(O)c1)[C@H](O)C2 [compound 8, (−)-epicatechin]",12.2

# Target: T2, Aβ42 (amyloid-β; Aβ) (Homo sapiens, UniProt P05067)
# T2 construct: gene APP; Abeta42 peptide of 42 residues (672-713 of APP, recalled); cut from amyloid precursor protein; aggregating peptide, monomer to fibril
# T2 sequence (P05067 672-713): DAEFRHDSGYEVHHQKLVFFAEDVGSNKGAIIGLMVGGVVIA
# Experiment: as above
# Assay type: biochemical
# Conditions: read-out: EC50 (Aβ/hIAPP, μM) ^a
# Text: thioflavin-T fluorescence, disaggregation of preformed aggregates on Aβ42 (amyloid-β; Aβ)
row,SMILES,EC50 [µM]
1,"O=C(O[C@@H]1Cc2c(O)cc(O)cc2O[C@@H]1c1cc(O)c(O)c(O)c1)c1cc(O)c(O)c(O)c1 [EGCG, reference compound]",5
2,"Oc1cc(O)c2c(c1)O[C@@]1(c3ccc(O)c(O)c3)Oc3cc4c(c(O)c3[C@@H]2[C@H]1O)C[C@@H](O)[C@@H](c1ccc(O)c(O)c1)O4 [compound 3, proanthocyanidin A6]",23
3,"COc1cc(OC)c2c(c1)O[C@@]1(c3ccc(OC)c(OC)c3)Oc3cc(OC)c4c(c3[C@@H]2[C@H]1O)O[C@H](c1ccc(OC)c(OC)c1)[C@H](O)C4 [compound 7, 7]",> 100
4,"Oc1cc(O)c2c(c1)O[C@@]1(c3ccc(O)c(O)c3)Oc3c4c(cc(O)c3[C@@H]2[C@H]1O)O[C@H](c1ccc(O)c(O)c1)[C@H](O)C4 [compound 5, proanthocyanidin A7]",8.9
5,"Oc1cc(O)c2c(c1)O[C@@]1(c3ccc(O)c(O)c3)Oc3cc(O)c4c(c3[C@@H]2[C@H]1O)O[C@H](c1ccc(O)c(O)c1)[C@H](O)C4 [compound 1, procyanidin A2]",3.3
6,"Oc1cc(O)c2c(c1)O[C@H](c1ccc(O)c(O)c1)[C@H](O)C2 [compound 8, (−)-epicatechin]",12.9

# Target: T2, Aβ42 (amyloid-β; Aβ)
# Experiment: thioflavin-T fluorescence, aggregation inhibition
# Assay type: biochemical
# Conditions: read-out: IC50 (Aβ/hIAPP, μM) ^a
# Text: thioflavin-T fluorescence, aggregation inhibition on Aβ42 (amyloid-β; Aβ)
row,SMILES,IC50 [µM]
1,"O=C(O[C@@H]1Cc2c(O)cc(O)cc2O[C@@H]1c1cc(O)c(O)c(O)c1)c1cc(O)c(O)c(O)c1 [EGCG, reference compound]",3.8
2,"Oc1cc(O)c2c(c1)O[C@@]1(c3ccc(O)c(O)c3)Oc3cc4c(c(O)c3[C@@H]2[C@H]1O)C[C@@H](O)[C@@H](c1ccc(O)c(O)c1)O4 [compound 3, proanthocyanidin A6]",4.2
3,"Oc1cc(O)c2c(c1)O[C@@]1(c3ccc(O)c(O)c3)Oc3c4c(cc(O)c3[C@@H]2[C@H]1O)O[C@H](c1ccc(O)c(O)c1)[C@@H](O)C4 [compound 6, 6]",6.8
4,"COc1cc(OC)c2c(c1)O[C@@]1(c3ccc(OC)c(OC)c3)Oc3cc(OC)c4c(c3[C@@H]2[C@H]1O)O[C@H](c1ccc(OC)c(OC)c1)[C@H](O)C4 [compound 7, 7]",> 100
5,"Oc1cc(O)c2c(c1)O[C@@]1(c3ccc(O)c(O)c3)Oc3c4c(cc(O)c3[C@@H]2[C@H]1O)O[C@H](c1ccc(O)c(O)c1)[C@H](O)C4 [compound 5, proanthocyanidin A7]",2.4
6,"Oc1cc(O)c2c(c1)O[C@@]1(c3ccc(O)c(O)c3)Oc3cc(O)c4c(c3[C@@H]2[C@H]1O)O[C@H](c1ccc(O)c(O)c1)[C@H](O)C4 [compound 1, procyanidin A2]",4.8
7,"Oc1cc(O)c2c(c1)O[C@H](c1ccc(O)c(O)c1)[C@H](O)C2 [compound 8, (−)-epicatechin]",41.7
8,"Oc1cc(O)c2c(c1)O[C@H](c1ccc(O)c(O)c1)[C@@H](O)C2 [compound 9, (+)-catechin]",56.8
9,"Oc1cc(O)c2c(c1)O[C@@]1(c3ccc(O)c(O)c3)Oc3cc4c(c(O)c3[C@@H]2[C@H]1O)C[C@H](O)[C@@H](c1ccc(O)c(O)c1)O4 [compound 4, 4]",5.7
